Data published in PubChem BioAssay AID2060363 (Molecular Pharmacology Branch, DTP, NCI, 2025).
Where “and” joins values, the source holds several entries; their conditions need not be identical. Equal entries are not always repeated.

System: 156681-154-R-J1-PDC tumor spheroids, viability % test/control
Assay: Anticancer human tumor 156681-154-R-J1-PDC patient-derived melanoma cell line growth inhibition [TAK]
Conditions: spheroids with HUVEC and MSC; for viability, T/C: stronger effect = lower value
Source text: Combinatorial screen of targeted agents with TAK-243 and ipatasertib in multi-cell type tumor spheroids
A high-throughput screen of multi-cell type tumor spheroids was designed to identify active combinations of targeted small molecules and TAK-243 or ipatasertib. Complex spheroids include a stromal component modeled by human endothelial cells (HUVEC) and fibroblasts modeled by human mesenchymal stem cells (MSCs). The concentration ranges selected for each drug and investigational agent were based upon clinically achievable concentrations if the clinical Cmax of the agent was known.
Compounds. The drugs and investigational agents: TAK-243 (785004), ipatasertib (767898), everolimus (733504), selumetinib (741078), bortezomib (756655), trametinib (758246), ixazomib (758254), vemurafenib (761431), dabrafenib (764134), sapanisertib (764658), alpelisib (765974), and copanlisib (816437), were obtained from the National Cancer Institute (NCI) Developmental Therapeutics Program Chemical Repository. The FDA-approved anticancer drug set is available from the NCI Developmental Therapeutics Program. […] The stock solutions were prepared in dimethyl sulfoxide (DMSO, Sigma-Aldrich, St. Louis, MO, cat. D2650) at 800-fold the tested concentration and stored at -70 degrees C prior to their use. All drugs and investigational agents were tested over a range starting from a high concentration at or near the clinical Cmax and decreasing in half-log increments. If the clinical Cmax for an agent had not been determined, the highest concentration tested was 10 microM.
NCI60 Cell Culture. NCI60 cell lines were obtained from the NCI Developmental Therapeutics Program Tumor Repository. For each lot of cells, the Repository performed Applied Biosystems AmpFLSTR Identifiler testing with PCR amplification to confirm consistency with the published Identifier STR profile for each cell line. Cells were kept in continuous culture for no more than 20 passages. The optimal seeding densities for each of the cell lines at each time point assessed were determined prior to performing the concentration response studies. Briefly, the NCI60 human tumor lines were grown as monolayers in RPMI 1640 medium supplemented with 10% FBS and 2 mmol/L L-glutamine.
An additional 2 lines were from the NCI60 cell line panel including melanomas, MALME-3M and SK-MEL-2. Pooled donor human umbilical vein endothelial cells (HUVEC, Lonza, cat. CC-2519) and human mesenchymal stem cells (hMSC, Lonza, cat. PT-2501) were purchased from Lonza (Walkersville, MD).
PDMR cell lines were grown in complete medium (DC medium): Dulbecco's modified Eagle's medium (DMEM)/F12 supplemented with 5% fetal bovine serum (FBS), 2 mM L-glutamine, 100 U/mL penicillin and 100 µg/ml streptomycin, 0.4 µg/ml hydrocortisone, 10 ng/ml epidermal growth factor (EGF) recombinant human protein, 24 µg/mL adenine, and 0.1 mg/mL primocin. During culture from frozen stock vials, PDMR cells were cultured in the same medium containing 10 µM Y-27632 (see Table 3). The PDCs were cultured in complete DMEM/F12 media without 10 microM Y-27632 dihydrochloride for at least two passages prior to the screen. The pooled donor HUVEC and hMSC were cultured in endothelial cell growth medium 2 (PromoCell, Heidelberg, Germany, cat. C-22011) and mesenchymal stem cell growth medium 2 (PromoCell, cat. C-28009), respectively. For all experiments, HUVEC and hMSC were used at passages </=5.
For the pre-screen, cell seeding densities were determined from a titration spanning the range from 5,000 to 313 cells per well. The mct-spheroids including 60% malignant cells, 25% HUVEC and 15% MSC dispensed as a mixture into U-bottom Ultra-Low Attachment 384-well plates (Corning, NY)
High-throughput Drug Combination Screening.
Prior to their inoculation into 384-well plates, malignant cells, HUVEC, and hMSC were removed from T flasks using TrypLE express (Thermo Fisher Scientific, cat. 12605036) and harvested by centrifugation for 5 min at 233 x g. […]

[1] = curve of first compound, second compound 0.3 µM
[2] = curve of first compound, second compound 0.949 µM
[3] = curve of first compound, second compound 3 µM
[4] = curve of first compound, second compound 9.49 µM
[5] = curve of first compound, second compound 30 µM
[6] = second compound 0.3 µM, first compound 0.000316 µM
[7] = second compound 0.3 µM, first compound 0.001 µM
[8] = second compound 0.3 µM, first compound 0.00316 µM
[9] = second compound 0.3 µM, first compound 0.01 µM
[10] = second compound 0.3 µM, first compound 0.0316 µM
[11] = second compound 0.3 µM, first compound 0.1 µM
[12] = second compound 0.949 µM, first compound 0.000316 µM
[13] = second compound 0.949 µM, first compound 0.001 µM
[14] = second compound 0.949 µM, first compound 0.00316 µM
[15] = second compound 0.949 µM, first compound 0.01 µM
[16] = second compound 0.949 µM, first compound 0.0316 µM
[17] = second compound 0.949 µM, first compound 0.1 µM
[18] = second compound 3 µM, first compound 0.000316 µM
[19] = second compound 3 µM, first compound 0.001 µM
[20] = second compound 3 µM, first compound 0.00316 µM
[21] = second compound 3 µM, first compound 0.01 µM
[22] = second compound 3 µM, first compound 0.0316 µM
[23] = second compound 3 µM, first compound 0.1 µM
[24] = second compound 9.49 µM, first compound 0.000316 µM
[25] = second compound 9.49 µM, first compound 0.001 µM
[26] = second compound 9.49 µM, first compound 0.00316 µM
[27] = second compound 9.49 µM, first compound 0.01 µM
[28] = second compound 9.49 µM, first compound 0.0316 µM
[29] = second compound 9.49 µM, first compound 0.1 µM
[30] = second compound 30 µM, first compound 0.000316 µM
[31] = second compound 30 µM, first compound 0.001 µM
[32] = second compound 30 µM, first compound 0.00316 µM
[33] = second compound 30 µM, first compound 0.01 µM
[34] = second compound 30 µM, first compound 0.0316 µM
[35] = second compound 30 µM, first compound 0.1 µM
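Note: spheroids exposed to compounds for 7 days before the endpoint.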

SMILES	IC50 [1]	IC50 [2]	IC50 [3]	IC50 [4]	IC50 [5]	viability, T/C [6]	viability, T/C [7]	viability, T/C [8]	viability, T/C [9]	viability, T/C [10]	viability, T/C [11]	viability, T/C [12]	viability, T/C [13]	viability, T/C [14]	viability, T/C [15]	viability, T/C [16]	viability, T/C [17]	viability, T/C [18]	viability, T/C [19]	viability, T/C [20]	also measured
CC(C)CC(NC(=O)CNC(=O)c1cc(Cl)ccc1Cl)B1OC(=O)CC(CC(=O)O)(C(=O)O)O1 (configuration not stated) + CC(C)NCC(C(=O)N1CCN(c2ncnc3c2C(C)CC3O)CC1)c1ccc(Cl)cc1	18 nM	17.1 nM	12.2 nM	< 0.316 nM	< 0.316 nM	96.8%	86.9%	94.9%	88%	13.8%	0.27%	88.7%	87.7%	90.2%	82.1%	13.2%	0.34%	79.4%	76.9%	78.9%	viability, T/C [21]: 58.8%; viability, T/C [22]: 8.09%; viability, T/C [23]: 0.23%; viability, T/C [24]: 43.3%; viability, T/C [25]: 41.5%; viability, T/C [26]: 42%; viability, T/C [27]: 40.9%; viability, T/C [28]: 4.19%; viability, T/C [29]: 0.25%; viability, T/C [30]: 17.5%; viability, T/C [31]: 20.3%; viability, T/C [32]: 18.5%; viability, T/C [33]: 15.4%; viability, T/C [34]: 2.17%; viability, T/C [35]: 0.28%
CC(C)n1nc(-c2ccc3oc(N)nc3c2)c2c(N)ncnc21 + CC(C)NCC(C(=O)N1CCN(c2ncnc3c2C(C)CC3O)CC1)c1ccc(Cl)cc1	26 nM	12.5 nM	2.4 nM	< 0.316 nM	< 0.316 nM	94.5%	91.8%	84.1%	69.4%	45.9%	25.2%	83.4%	85.4%	63.8%	58.6%	32.1%	20%	65.4%	57.3%	46.2%	viability, T/C [21]: 38.3%; viability, T/C [22]: 19.7%; viability, T/C [23]: 11%; viability, T/C [24]: 39.9%; viability, T/C [25]: 33.4%; viability, T/C [26]: 23.3%; viability, T/C [27]: 16.3%; viability, T/C [28]: 11%; viability, T/C [29]: 4.26%; viability, T/C [30]: 15.5%; viability, T/C [31]: 14.4%; viability, T/C [32]: 12.3%; viability, T/C [33]: 7.31%; viability, T/C [34]: 3.39%; viability, T/C [35]: 1.21%
COC1CC2CCC(C)C(O)(O2)C(=O)C(=O)N2CCCCC2C(=O)OC(C(C)CC2CCC(OCCO)C(OC)C2)CC(=O)C(C)C=C(C)C(O)C(OC)C(=O)C(C)CC(C)C=CC=CC=C1C (configuration not stated) + CC(C)NCC(C(=O)N1CCN(c2ncnc3c2C(C)CC3O)CC1)c1ccc(Cl)cc1	29 nM	2.9 nM	0.525 nM	< 0.316 nM	< 0.316 nM	80%	79.9%	65.6%	55.7%	51.8%	45.9%	80.8%	65.2%	48.4%	45.1%	46.5%	40.7%	51.8%	49.1%	37.5%	viability, T/C [21]: 32.5%; viability, T/C [22]: 28.6%; viability, T/C [23]: 29.4%; viability, T/C [24]: 31.6%; viability, T/C [25]: 28%; viability, T/C [26]: 21.2%; viability, T/C [27]: 18.8%; viability, T/C [28]: 19.5%; viability, T/C [29]: 17.4%; viability, T/C [30]: 15.9%; viability, T/C [31]: 13.5%; viability, T/C [32]: 12.1%; viability, T/C [33]: 8.24%; viability, T/C [34]: 9.33%; viability, T/C [35]: 8.33%
Cn1cnc2c(F)c(Nc3ccc(Br)cc3Cl)c(C(=O)NOCCO)cc21	–	–	–	–	–	–	–	–	–	–	–	–	–	–	–	–	–	–	–	–	viability, T/C (compound 0.00949 µM): 95.4% and 99.5%; viability, T/C (compound 0.03 µM): 92.4% and 89.7%; viability, T/C (compound 0.0949 µM): 97.8% and 89.7%; viability, T/C (compound 0.3 µM): 93.4% and 95.4%; viability, T/C (compound 0.949 µM): 41.3% and 32.8%; viability, T/C (compound 3 µM): 13% and 12.3%; IC50 (curve of compound): 782 nM and 685 nM
